melting point: 151 to 154 °C (dec.)
SMILES: COc1ccc(S(=O)(=O)N2CC=CC(c3ccccc3)C2C(=O)NO)cc1 (stereo not shown) [Example 2, N-hydroxy-1-(4-methoxybenzenesulfonyl)-3-phenyl-1,2,3,6-tetrahydropyridine-2-carboxamide]
